This note sets out measurements from paper PMC7904827 (Scientific Reports, 2021).

A short description of series [1]: Approximate solubility in distilled water at room temperature. The format is physicochemical. The note with it: distilled water, room temperature. As to the method: The syntheses of the target prodrugs were performed according to a known three-step procedure with some modifications. Target prodrugs GK-667, GK-678 and GK-691 were obtained in 34%, 37% and 17% overall yields, respectively. […] The resulting solutions remained physically stable for at least two hours at room temperature.

Series [2] can be described thus: ICRF-193 release from GK-667 in rabbit plasma in vitro. The format is in vitro ADME. The note with it: GK-667 10 and 100 µM, 37 °C. On the procedure: (§1) From all of the above described experiments, samples were taken at predefined intervals, treated and immediately analyzed. All experiments were performed in four replicates, and the results are expressed as the mean ± SD.

A short description of series [3]: ICRF-193 release from the prodrugs during incubation in DMEM (thermomixer, UHPLC-MS/MS). The series is classed as in vitro ADME. The settings on record: 100 µM, 37 °C. On the procedure:
All samples were spiked with the internal standards. DMEM or buffer (100 μL) was diluted with an ice-cold methanol/water mixture (20:80, v/v), mixed and analyzed. Plasma (50 μL) was precipitated with ice-cold methanol (1:5, v/v), mixed (20 s) and centrifuged (10 min, 10,000 rpm, 4 °C). NVCM pellets (4.8 × 10^6 cells) were precipitated with ice-cold methanol (250 μL), mixed (20 s), sonicated in a cold ultrasonic bath (75 s), mixed (30 s) and centrifuged (10 min, 10,000 rpm, 4 °C). The supernatants from the plasma and NVCM extractions were filtered (0.22 μm, PVDF) prior to analysis. For assay of the prodrugs, the samples were acidified with formic acid to a final concentration of 0.5%.
The samples were analyzed using two UHPLC instruments both coupled to a triple quadrupole mass spectrometer. […] Positive ionization mode was used in both methods. The analytical columns tested are characterized in the Supplementary materials.
The prodrugs (100 μM) were incubated (37 °C) in DMEM in a thermomixer (Thermomixer Comfort, Eppendorf, Germany) under gentle mixing (350 rpm) for 48 h.
as §1

The subject of series [4] is neonatal ventricular cardiomyocytes (NVCMs). The series can be described thus: In vitro cardioprotection bioassay against daunorubicin toxicity (LDH release). The note with it: 3 h preincubation, DAU 1.2 µM, LDH release after 48 h. The series is classed as cell-based, rat. On the procedure: NVCMs were isolated in-house from 1- to 3-day-old Wistar rats as described previously. The use of animals and experimental protocols were approved by Charles University, Faculty of Pharmacy Animal Welfare Committee. All experiments were performed in accordance with Directive 2010/63/EU on the Protection of Animals Used for Scientific Purposes and in compliance with Animal Research: Reporting of In Vivo Experiments (ARRIVE) guidelines. Newly isolated cardiomyocytes were left for 40 h to form a monolayer of spontaneously beating cardiomyocytes in seeding medium (DMEM/F12 supplemented with 10% HS, 5% FBS, 4% PYR and 1% P/S), which was then replaced with culture medium (DMEM/F12 supplemented with 5% FBS, 4% PYR and 1% P/S). The medium was replaced again after 24 h for new culture medium.
After 3 h, DAU solution (1.2 µM) was added to the media. After another 3 h, the medium was replaced with new (drug-free) exposure medium, and the cardiomyocytes were then kept until the end of the experiment. In addition to cytoprotective properties, the toxicity of the studied agent was also examined; this experiment was performed as described above with only the DAU addition step omitted.
Forty-five hours after the last medium exchange, a sample of medium was taken from each well to assess lactate dehydrogenase (LDH) activity[27]–[29]. For details, see the Supplementary material.
1.5 LDH activity evaluation
The control wells were treated with lysis buffer (0.1 M potassium phosphate, 1% Triton
X-100, 1 mM DTT, 2 mM EDTA; pH 7.8; 15 min; room temperature) to measure the total
cellular LDH level (sum of the activity in the control medium and the lysate). The activity of
LDH was assayed in Tris-HCl buffer (pH 8.9) containing 35 mM sodium lactate and 5 mM
NAD+. The rate of NAD+ reduction was monitored spectrophotometrically at 340 nm for 2 min.
The slope of the linear region and molar absorption coefficient e = 6.22*10 3 M/cm were used
to calculate the LDH activity, and the data were expressed as a percentage of total L DH activity. […]

The nature of series [5]: Incubation in DMEM in an incubator (5% CO2, 37 °C) without cells. The series is classed as in vitro ADME. The settings on record: 100 µM. As to the method:
Herein, incubations were performed in DMEM (100 μM) in a CelCulture Incubator (5% CO2, 37 °C, ESCO, USA) to mimic the conditions of the in vitro cytoprotective assay, and the results were compared to those from the saline buffer (116 mM NaCl, 5.3 mM KCl, 1.2 mM MgSO4, 1 mM CaCl2, 1.13 mM NaH2PO4, 5 mM glucose, and 20 mM HEPES, pH = 7.4).
as §1

Structures can show the parent of a compound that is named as a salt.

Consider `C[C@H]([C@H](C)N1CC(=O)N(COC(=O)CN)C(=O)C1)N1CC(=O)N(COC(=O)CN)C(=O)C1` [GK-667, meso-2,3-bis(4-(2-aminoacetoxymethyl)-3,5-dioxopiperazin-1-yl)butane tetrahydrochloride], for which the solubility in series [1] is around 20 mg/mL. Besides, in series [2], the “metabolism of the prodrug in plasma” value is “rapidly metabolized”. The “conversion to the inactive metabolite ICRF-193met” value in series [3] (AUC0–3 h and AUC0–48 h, compared with the other prodrugs) is listed as “lowest conversion”. In addition, in series [3] (GK-667 compared with GK-678), the “AUC0–3 h of ICRF-193 concentrations” value was “no statistically significant differences” and the “AUC0–48 h of ICRF-193 concentrations” value is recorded as “significantly higher”. In addition, the “lowest concentration with significant protection against DAU-induced toxicity” value in series [4] was “matched the results of ICRF-193”. In series [5], the “degradation in DMEM without cells” value is on record as “rapidly degraded”.
